The values that follow come from PMC9959048, “Lipidation of Naturally Occurring α-Helical Antimicrobial Peptides as a Promising Strategy for Drug Design” (International Journal of Molecular Sciences, 2023).

≈ marks a conversion by molar mass, not a printed value. Residues, ends and D or L forms follow the SMILES beside them. *: point of attachment. Octanoyl = CCCCCCCC(=O)*

For one data set, the system named is S. aureus PCM1650. The format is cell-based, Staphylococcus aureus. As to conditions: PCM1650, 24 h. Put shortly: (§1)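 Lipopeptides serially diluted per CLSI; 24 h at 35 °C (yeasts, RPMI-1640 buffered with MOPS) or 37 °C (bacteria, MHB). Triplicate OD600 readings converted to growth inhibition percentages.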
Another data set deals with S. aureus PCM2054. The data set is classed as cell-based, Staphylococcus aureus. Particulars: PCM2054, 24 h. In outline:
as §1

The test system of another data set is S. epidermidis PCM2118. The data set is classed as cell-based, Staphylococcus epidermidis. Particulars: PCM2118, 24 h. Put shortly:
as §1

For another data set, the system named is S. epidermidis PCM521. The data set is classed as cell-based, Staphylococcus epidermidis. Particulars: PCM521, 24 h. Put shortly: as §1
Another data set relates to E. coli PCM2057. The data set is classed as cell-based, Escherichia coli. As to conditions: PCM2057, 24 h. In outline:
as §1

The subject of the next data set is C. albicans PCM2566. The format is cell-based, Candida albicans. Particulars: PCM2566, 24 h. Put shortly: as §1
The test system of the next data set is C. glabrata CCM8270. The data set is classed as cell-based, Candida glabrata. Particulars: CCM8270, 24 h. Put shortly:
as §1

For the next data set, the system named is C. krusei CCM8271. The format is cell-based, Candida krusei. As to conditions: CCM8271, 24 h. In outline: as §1
In another data set the test system is C. parapsilosis CCM 8260. The data set is classed as cell-based, Candida parapsilosis. As to conditions: CCM 8260, 24 h. Put shortly:
as §1

The nature of data set [1]: Dynamic light scattering of lipopeptide assemblies. Particulars: DLS, sonicated 10 min, incubated 1 h, 90° side scatter. The data set is classed as physicochemical. The procedure:
The hydrodynamic diameters of the lipopeptide nanoaggregates were examined by the Litesizer 500 (Anton-Paar GmbH, Graz, Austria) at 25 °C. The measurements were carried out at various lipopeptide concentrations ranging from 0.5 to 2 mM and from 0.25 to 2 mM, in water and PBS, respectively. Two-fold serial dilutions were used to obtain the sequential concentrations. Each sample was sonicated for 10 min followed by incubation for 1 h at 25 °C and transferred to the polystyrene cuvette. The detector was positioned at a side scatter position (90°). The analysis of the obtained results and report generation was performed with KalliopeTM software (Anton-Paar GmbH, Graz, Austria).

The next data set relates to POPC liposomes. Nature of the data set: CD, α-helix content in POPC liposomes. The data set is classed as physicochemical. As to conditions: 25 °C, peptide 0.15 mg/mL, 1.3 mM POPC.
In another data set the test system is POPG liposomes. Nature of the data set: CD, α-helix content in POPG liposomes. The format is physicochemical. Particulars: 25 °C, peptide 0.15 mg/mL, 1.3 mM POPG, from ellipticity at 222 nm.
A further data set deals with S. aureus cells. Nature of the data set: CD, α-helix content in the presence of S. aureus cells. The data set is classed as physicochemical, Staphylococcus aureus. As to conditions: for α-Helix percentage, Staphylococcus aureus: peptide 0.15 mg/mL, phosphate buffer 10 mM pH 7.0, 2 h incubation. The procedure:
CD experiments were carried out at 25 °C using a Jasco J-815 spectropolarimeter in the wavelength range 185–260 nm. The concentration of the lipopeptides was 0.15 mg/mL. The CD spectra were recorded in water, PBS (pH 7.4), 1.3 mM POPC and 1.3 mM POPG. The results are plotted as the mean molar ellipticity per one amino acid residue (MRME, deg cm^2 dmol^−1) as a function of the wavelength (nm). Additionally, we performed a conformational analysis of the selected compounds in the presence of S. aureus cells. […] The mixtures were then incubated for 2 h before recording the CD spectra.
The percentage of the α-helical structure was calculated based on the mean molar ellipticity at 222 nm using the formula: fH=θ222−3000/−36000−3000·100% where θ222 corresponds to the value of the mean molar ellipticity at a wavelength of 222 nm.

Consider `CCCCCCCC(=O)N[C@H](C(=O)N[C@@H](CCCCN)C(=O)N[C@@H](CCCCN)C(=O)N[C@H](C(=O)N[C@@H](CC(C)C)C(=O)N[C@@H](CO)C(=O)N[C@@H](CCCCN)C(=O)N[C@H](C(=O)N[C@@H](CCCCN)C(=O)N[C@@H](CCCCN)C(=O)N[C@@H](CC(C)C)C(=O)N[C@@H](CC(C)C)C(=O)N[C@@H](CCCCN)C(N)=O)[C@@H](C)CC)[C@@H](C)CC)[C@@H](C)CC` [C8-LK6] (Octanoyl-IKKILSKIKKLLK-NH2), for which, in the data set on S. aureus PCM1650, the “MIC, S. aureus PCM1650” value amounted to 12.5 µg/mL (≈ 7.45 µM). Besides, the “MIC, S. aureus PCM2054” value with S. aureus PCM2054 came out at 12.5 µg/mL (≈ 7.45 µM). Further, the “MIC, S. epidermidis PCM2118” value against S. epidermidis PCM2118 worked out at 6.25 µg/mL (≈ 3.72 µM). For the same compound, the “MIC, S. epidermidis PCM521” value in the data set with S. epidermidis PCM521 is on record as 6.25 µg/mL (≈ 3.72 µM). For the same compound, in the data set with E. coli PCM2057, the “MIC, E. coli PCM2057” value was above 50 µg/mL. Moreover, the “MIC, C. albicans PCM2566” value with C. albicans PCM2566 turned out to be 12.5 µg/mL (≈ 7.45 µM). Also, the “MIC, C. glabrata CCM8270” value in the data set with C. glabrata CCM8270 worked out at 25 µg/mL (≈ 14.9 µM). Moreover, the “MIC, C. krusei CCM8271” value in the data set with C. krusei CCM8271 is listed as 6.25 µg/mL (≈ 3.72 µM). In addition, the “MIC, C. parapsilosis CCM 8260” value against C. parapsilosis CCM 8260 is 6.25 µg/mL (≈ 3.72 µM). Also, the “hydrodynamic diameter, peak of highest scattering intensity” value in [1] (0.25 mM in PBS pH 7.4, 25 °C) is recorded as 2596 ± 512 nm; in data set [1] (0.5 mM salt-free aqueous solution, 25 °C) it was 327 ± 102 nm. In data set [1] (2 mM in PBS pH 7.4, 25 °C), this compound came in with a hydrodynamic diameter of 3047 ± 750 nm. Also, the “θ222/θ208, POPC” value in the data set on POPC liposomes came to 0.82. For the same compound, in the data set with POPC liposomes (from ellipticity at 222 nm), the “α-Helix percentage, POPC” value was 46%. The “α-Helix percentage, POPG” value in the data set with POPG liposomes worked out at 24%. Further, the “θ222/θ208, Staphylococcus aureus” value with S. aureus cells (OD0.1 bacterial suspension) is listed as 1.26; in the data set on S. aureus cells (OD0.2 bacterial suspension) it was 0.89; with S. aureus cells (OD0.5 bacterial suspension), 0.88. The figures for the “α-Helix percentage, Staphylococcus aureus” value in the data set with S. aureus cells (OD0.1 bacterial suspension), in the data set on S. aureus cells (OD0.2 bacterial suspension) and in the data set on S. aureus cells (OD0.5 bacterial suspension) were 22%, 17% and 18%, respectively. Moreover, in the data set on S. aureus cells (S. aureus, various bacterial cell counts of the inoculum), the “α-helical structure in the presence of bacterial cells” value is 17–22%.
